“Also recorded” adds a separate entry of the source.
Columns and labels:
[1] = system: ZIKV MR766; assay: Antiviral assay against ZIKV in SH-SY5Y cells (CPE, MTS readout); type: cell-based, zika virus; conditions: Zika virus, 168 h; SH-SY5Y cells; ZIKV MR766, MOI 0.01, 7-day incubation
Description: (§1) These compounds were next evaluated for their antiviral effect on ZIKV replication in Vero E6 and SH-SY5Y cells. 7-Deaza-2′-C-methyladenosine (7DMA), a viral polymerase inhibitor,[35] was included as a positive control.
Besides the standard assays in VeroE6 cells, the compounds were also tested in SH-SY5Y cells. […] Thus, they function as a relevant neuronal cell-based model of ZIKV infection.[38]
(§2) Assessment of the antiviral activity against ZIKV in VeroE6 cells (African green monkey kidney cells; Vero 76, clone E6; ATCC: Cat# CRL-1586) was done as previously described.[35] The antiviral assays in the neuroblastoma SH-SY5Y cells (CRL-2266; ATCC) were conducted as follows: SH-SY5Y cells were seeded in assay medium (MEM supplemented with 2% fetal bovine serum, 2 mM L-glutamine and 0.075% sodium bicarbonate; all from Thermo Fisher Scientific) at a density of 15 000 cells/well in 96-well plates. Cells were incubated overnight at 37 °C and 5% CO2. The next day, a serial dilution of the compounds was added to the cells, followed by inoculation of the cells with ZIKV MR766 (MOI = 0.01). Following a 7-day incubation at 37 °C and 5% CO2, ZIKV-induced cytopathic effect was determined by means of the MTS readout method, analogous to the assay with the VeroE6 cells.[35] The 50% effective concentration (the compound concentration that is required to inhibit virus-induced CPE by 50%; EC50) and the 50% cytotoxic concentration (i.e. the compound concentration that is required to inhibit the cell growth by 50%; CC50) was determined using logarithmic interpolation.

[2] = Cytotoxicity in non-infected VeroE6 cells; type: cell-based, African green monkey; conditions: African green monkey, non-infected, 50% cytotoxic concentration
Description: as §2

[3] = system: ZIKV; assay: Antiviral assay against ZIKV in VeroE6 cells (CPE, MTS readout); type: cell-based, zika virus; conditions: for EC50: Zika virus, Vero C1008, VeroE6 cells, concentration that protects 50% of the cells from virus-induced cytopathic effect
Description: as §1, §2

[4] = Cytotoxicity in non-infected SH-SY5Y cells; type: cell-based; conditions: human, SH-SY5Y neuroblastoma cells, 50% cytotoxic concentration
Description: as §2

[5] = target: T1, DENV3 MTase (Dengue virus type 3, UniProt P27915); assay: Filter binding assay (FBA), DENV3 2′-O-MTase activity; type: biochemical; conditions: for inhibition at 50 µM: 2′-O-MTase activity, compound at 50 μM, read-out: Percentage of inhibition of DENV3 MTase; for Effect on 2′-O-MTase activity of DENV3 (in words): tested at 50 μM
T1 construct: the MTase activity is located at the N-terminal of the viral NS5 protein; made in house
T1 sequence (P27915 2492-2753): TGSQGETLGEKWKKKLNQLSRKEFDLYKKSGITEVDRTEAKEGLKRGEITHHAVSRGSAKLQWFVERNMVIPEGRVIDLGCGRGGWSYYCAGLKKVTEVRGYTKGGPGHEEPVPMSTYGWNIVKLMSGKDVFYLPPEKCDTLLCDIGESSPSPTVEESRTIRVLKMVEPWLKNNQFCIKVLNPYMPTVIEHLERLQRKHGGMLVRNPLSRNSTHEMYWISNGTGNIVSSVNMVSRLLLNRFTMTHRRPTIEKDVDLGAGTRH
Description: (§3) The synthesized arylpurines were evaluated for their inhibitory activity against the 2′-O-MTase activity of ZIKV and DENV3 MTases by quantification of [^3H]-methyl transfer from the [^3H]-SAM on short synthetic capped RNA (GpppAC4), by using a filter binding assay (FBA).[13,33] The universal methyltransferase inhibitor sinefungin was included as a positive control (Table 1), whose IC50 value against ZIKV MTase has already been reported using a similar assay.[13] We assessed MTase inhibition by testing the synthesized compounds at a concentration of 50 μM.
(§4) Proteins were produced and purified as previously described.[13] Briefly, the coding sequence of ZIKV NS5 (aa 4-903) and the ZIKV NS5 MTase (aa 4-278) domain were synthesized (Genscript) based on the sequence of the ZIKV strain H/PF/2013 (GenBank accession no. KJ776791.2) and then cloned into a pQE30 (Qiagen) plasmid with an N-terminal His6 tag. The MTase domains (aa 4-278 and aa 1-264) were produced in Escherichia coli T7 Express Iq (New England BioLabs). Cells were grown in Terrific Broth at 37 °C until the optical density at 600 nm (OD600) reached 0.6. Protein expression was then induced by 0.5 mM IPTG (isopropyl-β-D-thiogalactopyranoside) at 17 °C overnight. Bacteria were harvested by centrifugation. The bacterial pellets from a 2-liter bacterial culture were resuspended in 100 ml lysis buffer (50 mM Tris–HCl [pH 8], 300 mM NaCl, 5% glycerol, 0.1% Triton, 10 μg per ml DNase I, 2 tablets of EDTA-free antiprotease cocktail [Roche], 0.25 mg per ml lysozyme). After 30 min of incubation at 4 °C, cells were sonicated and clarified by centrifugation prior to immobilized metal affinity chromatography (IMAC) purification on a 5-mL His prep column (GE Healthcare), with elution in 50 mM Tris–HCl, 300 mM NaCl, and 250 mM imidazole (pH 8.0). The eluted protein was then loaded on a 16/60 Superdex 200 (GE Healthcare) equilibrated in a mixture of 10 mM HEPES, 500 mM NaCl, glycerol 5%, and 1 mM dithiothreitol (DTT [pH 7.5]).
(§5) The FBA MTase assay was carried out in a reaction mixture [40 mM Tris–HCl (pH 8.0), 1 mM DTT, 1.9 μM SAM, and 0.1 μM ^3H-SAM (PerkinElmer)] in the presence of 0.7 μM GpppAC4 synthetic RNA and the MTase (500 nM), according to the method previously described.[39] Briefly, the MTase was first mixed with the compound suspended in DMSO (5% final DMSO) before the addition of RNA substrate and SAM and then incubated at 30 °C. Reactions mixtures were stopped after 30 min by their 10-fold dilution in ice-cold water. Samples were transferred to diethylaminoethyl (DEAE) filtermat (PerkinElmer) using a Filtermat Harvester (Packard Instruments). The RNA-retaining mats were washed twice with 10 mM ammonium formate pH 8.0, twice with water and once with ethanol. They were soaked with scintillation fluid (PerkinElmer), and ^3H-methyl transfer to the RNA substrates was determined using a Wallac MicroBeta TriLux liquid scintillation counter (PerkinElmer).

[6] = target: T2, ZIKV MTase (Zika virus, UniProt A0A024B7W1); assay: Filter binding assay (FBA), ZIKV 2′-O-MTase activity; type: biochemical; conditions: for inhibition at 50 µM: 2′-O-MTase activity, compound at 50 μM, read-out: Percentage of inhibition of ZIKV MTase; for Effect on 2′-O-MTase activity of ZIKV (in words): tested at 50 μM
T2 construct: the ZIKV NS5 MTase (aa 4-278) domain were synthesized (Genscript); His6 (N); made in house; host or cells: Escherichia coli T7 Express Iq
T2 sequence (A0A024B7W1 2524-2798): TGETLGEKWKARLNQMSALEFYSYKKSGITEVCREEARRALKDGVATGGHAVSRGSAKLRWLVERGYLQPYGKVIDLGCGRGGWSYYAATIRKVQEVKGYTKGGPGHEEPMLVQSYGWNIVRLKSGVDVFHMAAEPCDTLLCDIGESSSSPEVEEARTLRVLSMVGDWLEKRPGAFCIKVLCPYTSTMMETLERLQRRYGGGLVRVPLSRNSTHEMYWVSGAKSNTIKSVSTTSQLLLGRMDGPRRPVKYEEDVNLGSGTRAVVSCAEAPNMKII
Description: as §3, §4, §5

[7] = Stability towards spontaneous cyclization in PBS : DMSO followed by HPLC; type: physicochemical; conditions: PBS : DMSO (95 : 5), HPLC over a 24-hour period
Description: Then, compound 28 was treated with TFA at 70 °C to remove the tert-butyl ester and the p-methoxybenzyl group. Analysis of the reaction by HPLC/MS after 1 h indicated a mixture of two compounds with m/z = 695 and m/z = 575, that might correspond to cyclized products with and without the p-methoxybenzyl group at position 6 (see Fig. S3 at the SI). […] In exploring alternative methods for removing the PMB group, we came across a report by Sako et al., which described the oxidative debenzylation of 6-N-benzyladenosines under neutral pH conditions.[32] Since our compounds are more lipophilic than the nucleosides described by […], we changed the PBS : CH3CN ratio from 2 : 1, as described, to 1 : 1 to favor the solubility of our compounds. Additionally, we used microwave irradiation to shorten the reaction times. Thus, treatment of 27 with […] in PBS : CH3CN (1 : 1) at 80 °C for 45 min under MW irradiation led to the removal of the p-methoxybenzyl group, as detected by HPLC/MS. Further treatment of the reaction product with piperidine afforded 29 (25% yield over the 2 steps). A similar reaction sequence applied to 28 led to compound 30 (21% yield). […] Finally, treatment of 29 and 30 with TFA in DCM at rt afforded compounds 31 and 32 in 73% and 62% yields, respectively. To rule out the possibility of spontaneous cyclization following removal of both protecting groups from the amino acid, compounds 21, 31 and 32 were dissolved in a PBS : DMSO (95 : 5) mixture.

SMILES | EC50 [1] [µM] | CC50 [2] [µM] | EC50 [3] [µM] | CC50 at 7 days [4] [µM] | inhibition at 50 µM [5] [%] | Effect on 2′-O-MTase activity of DENV3 (in words) [5] | inhibition at 50 µM [6] [%] | Effect on 2′-O-MTase activity of ZIKV (in words) [6] | Stability (no spontaneous cyclization) [7] | Antiviral activity against ZIKV (in words) ([3]; cell-based assay)
C[C@@]1(O)[C@H](O)[C@@H](CO)O[C@H]1n1ccc2c(N)ncnc21 [Compound 7DMA, 7-Deaza-2′-C-methyladenosine, reference compound] | 33.7 ± 5.1 | > 200 | 9 ± 0.2 | > 50 |  |  |  |  |  | 
CC(C)(C)CCN(CC[C@H](N)C(=O)O)c1cccc(-n2cnc3c(N)ncnc32)c1 [Compound 10, (S)-2-Amino-4-((3-(6-amino-9H-purin-9-yl)phenyl)(3,3-dimethylbutyl)amino)butanoic acid] | > 100 | > 100 | > 100 | > 100 | 0 | no effect | 0 | no effect |  | 
Cc1ncnc2c1ccn2-c1cccc(N(CC[C@H](N)C(=O)O)CCC(C)(C)C)c1 [Compound 14, (S)-2-Amino-4-((3,3-dimethylbutyl)(3-(4-methyl-7H-pyrrolo[2,3-d]pyrimidin-7-yl)phenyl)amino)butanoic acid] | > 100 | > 100 | > 100 | > 100 | 0 | no effect | 0 | no effect |  | 
Cc1ncnc2c1ccn2-c1cccc(N(CC[C@H](NC(=O)OC(C)(C)C)C(N)=O)CCC(C)(C)C)c1 [Compound 17, tert-Butyl (S)-(1-amino-4-((3,3-dimethylbutyl)(3-(4-methyl-7H-pyrrolo[2,3-d]pyrimidin-7-yl)phenyl)amino)-1-oxobutan-2-yl)carbamate] | > 100 | 22.8 ± 0.5 | > 100 | 7 | 7.2 | modest inhibition | 11.1 | modest inhibition |  | 
Cc1ncnc2c1ccn2-c1cccc(NC(=O)C[C@H](N)C(=O)OC(C)(C)C)c1 [Compound 20, tert-Butyl N^4-(3-(4-methyl-7H-pyrrolo[2,3-d]pyrimidin-7-yl)phenyl)-L-asparaginate] | > 100 | > 33 | > 100 | > 100 | 0 | no effect | 0 | no effect |  | 
Cc1ncnc2c1ccn2-c1cccc(NC(=O)C[C@H](N)C(=O)O)c1 [Compound 21, N ^4-(3-(4-Methyl-7H-pyrrolo[2,3-d]pyrimidin-7-yl)phenyl)-L-asparagine] | > 100 | > 100 | > 100 | > 100 | 0 | no effect | 0 | no effect | remained intact | 
CC(C)(C)OC(=O)[C@@H](N)CC(=O)Nc1cccc(-n2cnc3c(N)ncnc32)c1 [Compound 29, tert-Butyl N^4-(3-(6-amino-9H-purin-9-yl)phenyl)-L-asparaginate] | > 100 | > 100 | > 100 | > 100 | ~20 | some inhibition | ~20 | inhibited; also recorded: some inhibition |  | no antiviral activity
COc1ccc(NC(=O)C[C@H](N)C(=O)OC(C)(C)C)cc1-n1cnc2c(N)ncnc21 [Compound 30, tert-Butyl N^4-(3-(6-amino-9H-purin-9-yl)-4-methoxyphenyl)-L-asparaginate] | > 100 | > 100 | > 100 | > 100 | 0 | no effect | 0 | no effect |  | 
